{"source": "ChEMBL document CHEMBL1153195", "about": "(Bioorg Med Chem Lett, 2010)", "key": {"Substance-P receptor": {"target": "Substance-P receptor (Homo sapiens, UniProt P25103)", "sequence (P25103 whole entry)": "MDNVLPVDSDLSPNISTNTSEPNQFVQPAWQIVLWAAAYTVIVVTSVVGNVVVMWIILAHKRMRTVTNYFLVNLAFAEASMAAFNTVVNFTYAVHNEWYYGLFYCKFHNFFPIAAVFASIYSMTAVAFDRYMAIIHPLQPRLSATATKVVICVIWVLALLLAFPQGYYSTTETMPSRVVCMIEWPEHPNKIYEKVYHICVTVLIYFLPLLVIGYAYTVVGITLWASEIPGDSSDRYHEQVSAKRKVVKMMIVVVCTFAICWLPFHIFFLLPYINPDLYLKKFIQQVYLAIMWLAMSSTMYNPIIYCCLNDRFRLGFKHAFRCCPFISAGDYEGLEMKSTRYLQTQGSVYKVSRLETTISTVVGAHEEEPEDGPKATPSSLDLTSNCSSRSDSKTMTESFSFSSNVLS", "assay": "Displacement of [3H]substance P from human NK1 receptor expressed in CHO cells", "assay_type": "cell-based"}, "Gerbillinae": {"tested_on": "Gerbillinae", "assay": "Anxiolytic-like activity in po or sc dosed gerbils assessed as inhibition of GR-73632-induced foot tapping administered 1 hr before GR-73632 challenge measured", "assay_type": "functional", "conditions": "for ED50: read-out: ID50 (the source's name)"}, "[1]": {"assay": "Ratio of drug level in brain to plasma in rat at 1 mg/kg, po after 5 mins", "assay_type": "ADME, organism-based", "parameters": "dose 1 mg/kg, route oral"}, "[2]": {"assay": "AUC (0 to 8 hrs) in rat at 1 mg/kg, po", "assay_type": "ADME, organism-based", "parameters": "time < 8 hr, dose 1 mg/kg, route oral", "conditions": "plasma"}, "[3]": {"assay": "Cmax in rat at 1 mg/kg, po", "assay_type": "ADME, organism-based", "parameters": "dose 1 mg/kg, route oral", "conditions": "in vivo"}}}
{"smiles": "Cc1cc(F)ccc1[C@H]1CNCCN1C(=O)N1CCNCC1c1cc(C(F)(F)F)cc(C(F)(F)F)c1", "note": "(stereo in doubt; 5a)", "values": [{"measurement": "Ki", "setting": "Substance-P receptor", "result": 100, "unit": "nM"}]}
{"smiles": "Cc1cc(F)ccc1[C@H]1CNCCN1C(=O)N1CCCC1c1cc(C(F)(F)F)cc(C(F)(F)F)c1", "note": "(stereo in doubt; 2b)", "values": [{"measurement": "Ki", "setting": "Substance-P receptor", "result": 6.31, "unit": "nM"}]}
{"smiles": "Cc1cc(F)ccc1[C@H]1CNCCN1C(=O)N1CCNCC1c1cc(C(F)(F)F)cc(C(F)(F)F)c1", "note": "(stereo in doubt; 5b) [listing 1 of 2 here]", "values": [{"measurement": "ED50", "setting": "Gerbillinae", "result": 0.4, "unit": "mg/kg"}, {"measurement": "Kp at 5 min", "setting": "[1]", "result": 0.9}, {"measurement": "AUC(0-t) at 8 h", "setting": "[2]", "result": 145, "unit": "ng·h/mL"}, {"measurement": "Ki", "setting": "Substance-P receptor", "result": 0.794, "unit": "nM"}, {"measurement": "Cmax", "setting": "[3]", "result": 32, "unit": "ng/mL"}]}
{"smiles": "Cc1cc(F)ccc1[C@H]1CNCCN1C(=O)N1CCC=CC1c1cc(C(F)(F)F)cc(C(F)(F)F)c1", "note": "(stereo in doubt; 3b)", "values": [{"measurement": "Ki", "setting": "Substance-P receptor", "result": 0.501, "unit": "nM"}]}
{"smiles": "Cc1cc(F)ccc1[C@H]1CNCCN1C(=O)N1CCC=CC1c1cc(C(F)(F)F)cc(C(F)(F)F)c1", "note": "(stereo in doubt; 3a)", "values": [{"measurement": "Ki", "setting": "Substance-P receptor", "result": 20, "unit": "nM"}]}
{"smiles": "Cc1cc(F)ccc1[C@H]1CNCCN1C(=O)N(C)[C@H](C)c1cc(C(F)(F)F)cc(C(F)(F)F)c1", "note": "[VESTIPITANT]", "values": [{"measurement": "ED50", "setting": "Gerbillinae", "result": 0.014, "unit": "mg/kg"}]}
{"smiles": "Cc1cc(F)ccc1[C@H]1CNCCN1C(=O)N1CCCCC1c1cc(C(F)(F)F)cc(C(F)(F)F)c1", "note": "(stereo in doubt; 4a)", "values": [{"measurement": "Ki", "setting": "Substance-P receptor", "result": 31.6, "unit": "nM"}]}
{"smiles": "Cc1cc(F)ccc1[C@H]1CNCCN1C(=O)N1CCCCC1c1cc(C(F)(F)F)cc(C(F)(F)F)c1", "note": "(stereo in doubt; 4b)", "values": [{"measurement": "Ki", "setting": "Substance-P receptor", "result": 1.26, "unit": "nM"}]}
{"smiles": "Cc1cc(F)ccc1C1CNCC2CN(Cc3cc(C(F)(F)F)cc(C(F)(F)F)c3)C(=O)N21", "note": "(stereo not given)", "values": [{"measurement": "Ki", "setting": "Substance-P receptor", "result": 50.1, "unit": "nM"}]}
{"smiles": "Cc1cc(F)ccc1[C@H]1CNCCN1C(=O)N1CCCC1c1cc(C(F)(F)F)cc(C(F)(F)F)c1", "note": "(stereo in doubt; 2a)", "values": [{"measurement": "Ki", "setting": "Substance-P receptor", "result": 63.1, "unit": "nM"}]}
{"smiles": "Cc1cc(F)ccc1[C@H]1CNCCN1C(=O)N1CCNCC1c1cc(C(F)(F)F)cc(C(F)(F)F)c1", "note": "(stereo in doubt; 5b) [listing 2 of 2 here]", "values": [{"measurement": "Activity", "setting": "Gerbillinae", "result": "Dose-dependent effect"}]}
{"smiles": "Cc1cc(F)ccc1[C@H]1CNCCN1C(=O)N(C)C1(c2cc(C(F)(F)F)cc(C(F)(F)F)c2)CC1", "values": [{"measurement": "Activity", "setting": "Gerbillinae", "result": "Dose-dependent effect"}, {"measurement": "ED50", "setting": "Gerbillinae", "result": 0.2, "unit": "mg/kg"}, {"measurement": "AUC(0-t) at 8 h", "setting": "[2]", "result": 108, "unit": "ng·h/mL"}, {"measurement": "Ki", "setting": "Substance-P receptor", "result": 0.501, "unit": "nM"}, {"measurement": "Cmax", "setting": "[3]", "result": 29, "unit": "ng/mL"}]}
